In this data set the test system is rodent lifetime carcinogenesis bioassay, tumor incidence TD50. Description: chronic cancer bioassays in animals – CPDB, compiled studies (AID 1745844).

SMILES strings stand for the structures. The source made the active and inactive calls. How the calls were made is not given here.

Take `O=NN(CCO)CCO`: the carcinogen call (rat, strain F344/DuCrj, males, in drinking water, site: liver, lesion: one or several types, types not named, dosed 40 weeks, study length 78 weeks) is “negative (inactive)”. Also, the TD50 runs as follows: (rat, strain Fischer 344, females, in drinking water, site: esophagus, lesion: papilloma, dosed 55 weeks, study length 105 weeks) 2050 mg/kg/day; (rat, strain Fischer 344, females, in drinking water, site: kidney, lesion: one or several types, types not named, dosed 55 weeks, study length 105 weeks) 327 mg/kg/day; (rat, strain Fischer 344, females, in drinking water, site: kidney, lesion: several types, types named in the paper, dosed 75 weeks, study length 130 weeks) 42.2 mg/kg/day; (rat, strain Fischer 344, females, in drinking water, site: liver, lesion: cholangioadenoma/carcinoma, dosed 75 weeks, study length 130 weeks) 56.8 mg/kg/day; (rat, strain Fischer 344, females, in drinking water, site: liver, lesion: cholangiocarcinoma, dosed 55 weeks, study length 105 weeks) 197 mg/kg/day; (rat, strain Fischer 344, females, in drinking water, site: liver, lesion: hemangiosarcoma, dosed 50 weeks, study length 120 weeks) 45.4 mg/kg/day. The TD50 is 1.94 mg/kg/day (rat, strain Fischer 344, females, in drinking water, site: liver, lesion: hepatocellular carcinoma, dosed 50 weeks, study length 120 weeks); 3.27 mg/kg/day (rat, strain Fischer 344, females, in drinking water, site: liver, lesion: hepatocellular carcinoma, dosed 55 weeks, study length 105 weeks); 4.05 mg/kg/day (rat, strain Fischer 344, females, in drinking water, site: liver, lesion: hepatocellular carcinoma, dosed 75 weeks, study length 130 weeks); 2.93 mg/kg/day (rat, strain Fischer 344, females, in drinking water, site: liver, lesion: neoplastic nodule, dosed 75 weeks, study length 130 weeks); 1.9 mg/kg/day (rat, strain Fischer 344, females, in drinking water, site: liver, lesion: several types, types named in the paper, dosed 75 weeks, study length 130 weeks); 44.1 mg/kg/day (rat, strain Fischer 344, females, in drinking water, site: nasal cavity, lesion: adenocarcinoma, dosed 55 weeks, study length 105 weeks). In addition, the TD50 is, setting by setting: (rat, strain Fischer 344, females, in drinking water, site: nasal cavity, lesion: olfactory carcinoma, dosed 55 weeks, study length 105 weeks) 128 mg/kg/day; (rat, strain Fischer 344, females, in drinking water, site: nasal cavity, lesion: squamous-cell carcinoma, dosed 55 weeks, study length 105 weeks) 4320 mg/kg/day; (rat, strain Fischer 344, males, in drinking water, site: esophagus, lesion: carcinoma, dosed 48 weeks, study length 95 weeks) 432 mg/kg/day; (rat, strain Fischer 344, males, in drinking water, site: esophagus, lesion: papilloma, dosed 48 weeks, study length 95 weeks) 207 mg/kg/day; (rat, strain Fischer 344, males, in drinking water, site: kidney, lesion: one or several types, types not named, dosed 48 weeks, study length 95 weeks) 99.7 mg/kg/day; (rat, strain Fischer 344, males, in drinking water, site: kidney, lesion: several types, types named in the paper, dosed 75 weeks, study length 125 weeks) 19 mg/kg/day. Also, the TD50 (rat, strain Fischer 344, males, in drinking water, site: liver, lesion: cholangioadenoma/carcinoma, dosed 75 weeks, study length 125 weeks) turned out to be 38.6 mg/kg/day; the TD50 (rat, strain Fischer 344, males, in drinking water, site: liver, lesion: cholangiocarcinoma, dosed 48 weeks, study length 95 weeks) was 23.9 mg/kg/day; the TD50 (rat, strain Fischer 344, males, in drinking water, site: liver, lesion: hepatocellular carcinoma, dosed 48 weeks, study length 95 weeks) was 2.77 mg/kg/day; the TD50 (rat, strain Fischer 344, males, in drinking water, site: liver, lesion: hepatocellular carcinoma, dosed 75 weeks, study length 125 weeks) is 9.03 mg/kg/day; the TD50 (rat, strain Fischer 344, males, in drinking water, site: liver, lesion: neoplastic nodule, dosed 75 weeks, study length 125 weeks) is 3.93 mg/kg/day; the TD50 (rat, strain Fischer 344, males, in drinking water, site: liver, lesion: several types, types named in the paper, dosed 75 weeks, study length 125 weeks) is 2.84 mg/kg/day. Further, the TD50 is, setting by setting: (rat, strain Fischer 344, males, in drinking water, site: nasal cavity, lesion: adenocarcinoma, dosed 48 weeks, study length 95 weeks) 15.5 mg/kg/day; (rat, strain Fischer 344, males, in drinking water, site: nasal cavity, lesion: olfactory carcinoma, dosed 48 weeks, study length 95 weeks) 50.4 mg/kg/day; (rat, strain Fischer 344, males, in drinking water, site: nasal cavity, lesion: squamous-cell carcinoma, dosed 48 weeks, study length 95 weeks) 280 mg/kg/day; (rat, strain Sprague-Dawley, males, in drinking water, site: all sites, lesion: one or several types, types not named, dosed 162 weeks, study length 167 weeks) 55.6 mg/kg/day; (rat, strain Sprague-Dawley, males, in drinking water, site: any site (literature study), lesion: benign tumor, dosed 162 weeks, study length 167 weeks) 7.93 mg/kg/day; (rat, strain Sprague-Dawley, males, in drinking water, site: any site (literature study), lesion: malignant tumor, dosed 162 weeks, study length 167 weeks) 23.5 mg/kg/day. The TD50 (rat, strain Sprague-Dawley, males, in drinking water, site: gastrointestinal tract, lesion: several types, types named in the paper, dosed 162 weeks, study length 167 weeks) is 143 mg/kg/day; the TD50 (rat, strain Sprague-Dawley, males, in drinking water, site: liver, lesion: cholangiocarcinoma, ductular, dosed 118 weeks, study length 147 weeks) was found to be 10700 mg/kg/day; the TD50 (rat, strain Sprague-Dawley, males, in drinking water, site: liver, lesion: hemangioendothelioma, benign, dosed 162 weeks, study length 167 weeks) is 126 mg/kg/day; the TD50 (rat, strain Sprague-Dawley, males, in drinking water, site: liver, lesion: hepatocellular adenocarcinoma, dosed 118 weeks, study length 147 weeks) is 9.51 mg/kg/day; the TD50 (rat, strain Sprague-Dawley, males, in drinking water, site: liver, lesion: hepatocellular adenoma, dosed 162 weeks, study length 167 weeks) was 347 mg/kg/day; the TD50 (rat, strain Sprague-Dawley, males, in drinking water, site: liver, lesion: hepatocellular carcinoma, dosed 162 weeks, study length 167 weeks) is 70.4 mg/kg/day. Moreover, the TD50 runs as follows: (rat, strain Sprague-Dawley, males, in drinking water, site: liver, lesion: several types, types named in the paper, dosed 118 weeks, study length 147 weeks) 8.23 mg/kg/day; (rat, strain Sprague-Dawley, males, in drinking water, site: liver, lesion: several types, types named in the paper, dosed 162 weeks, study length 167 weeks) 38.4 mg/kg/day; (rat, strain Sprague-Dawley, males, in drinking water, site: nasal cavity, lesion: olfactory neuroepithelioma, dosed 118 weeks, study length 147 weeks) 679 mg/kg/day; (rat, strain Sprague-Dawley, males, in drinking water, site: nasal cavity, lesion: several types, types named in the paper, dosed 118 weeks, study length 147 weeks) 168 mg/kg/day; (rat, strain Sprague-Dawley, males, in drinking water, site: nasal cavity, lesion: squamous-cell carcinoma, dosed 118 weeks, study length 147 weeks) 954 mg/kg/day; (rat, strain Sprague-Dawley, males, in drinking water, site: nervous system, lesion: one or several types, types not named, dosed 162 weeks, study length 167 weeks) 42.5 mg/kg/day.
As for `CC(=O)Nc1nnc(-c2ccc([N+](=O)[O-])o2)s1`, the TD50 (mouse, strain Swiss, females, in feed, site: any site (literature study), lesion: several types, types named in the paper, dosed 46 weeks, study length 55 weeks) amounted to 6.9 mg/kg/day; the TD50 (mouse, strain Swiss, females, in feed, site: forestomach, lesion: several types, types named in the paper, dosed 46 weeks, study length 55 weeks) was 6.74 mg/kg/day; the TD50 (mouse, strain Swiss, females, in feed, site: forestomach, lesion: squamous-cell carcinoma, dosed 46 weeks, study length 55 weeks) came out at 104 mg/kg/day; the TD50 (mouse, strain Swiss, females, in feed, site: forestomach, lesion: squamous-cell papilloma, dosed 46 weeks, study length 55 weeks) amounted to 14.1 mg/kg/day; the TD50 (rat, strain Sprague-Dawley, females, in feed, site: all sites, lesion: lymphoblastic lymphoma, dosed 40 weeks, study length 59 weeks) was 111 mg/kg/day; the TD50 (rat, strain Sprague-Dawley, females, in feed, site: forestomach, lesion: several types, types named in the paper, dosed 40 weeks, study length 59 weeks) was 8.84 mg/kg/day. Besides, the TD50 reads like this: (rat, strain Sprague-Dawley, females, in feed, site: forestomach, lesion: squamous-cell papilloma, dosed 40 weeks, study length 59 weeks) 11.6 mg/kg/day; (rat, strain Sprague-Dawley, females, in feed, site: intestine, lesion: hemangioendothelial sarcoma, dosed 40 weeks, study length 59 weeks) 18.6 mg/kg/day; (rat, strain Sprague-Dawley, females, in feed, site: kidney/pelvis, lesion: transitional-cell carcinoma, dosed 40 weeks, study length 59 weeks) 16.9 mg/kg/day; (rat, strain Sprague-Dawley, females, in feed, site: liver, lesion: hemangioendothelial sarcoma, dosed 40 weeks, study length 59 weeks) 22.9 mg/kg/day; (rat, strain Sprague-Dawley, females, in feed, site: lung, lesion: alveolar-cell carcinoma, dosed 40 weeks, study length 59 weeks) 15.3 mg/kg/day; (rat, strain Sprague-Dawley, females, in feed, site: lung, lesion: hemangioendothelial sarcoma, dosed 40 weeks, study length 59 weeks) 52.3 mg/kg/day. Also, the TD50 (rat, strain Sprague-Dawley, females, in feed, site: mammary gland, lesion: adenocarcinoma, dosed 40 weeks, study length 59 weeks) was 37.7 mg/kg/day; the TD50 (rat, strain Sprague-Dawley, females, in feed, site: mammary gland, lesion: several types, types named in the paper, dosed 40 weeks, study length 59 weeks) was determined as 43.3 mg/kg/day; the TD50 (rat, strain Sprague-Dawley, females, in feed, site: pancreas, lesion: hemangioendothelial sarcoma, dosed 40 weeks, study length 59 weeks) was 81.6 mg/kg/day; the TD50 (rat, strain Sprague-Dawley, females, in feed, site: several sites, sites named in the paper, lesion: hemangioendothelial sarcoma, dosed 40 weeks, study length 59 weeks) was 10.6 mg/kg/day; the TD50 (rat, strain Sprague-Dawley, females, in feed, site: small intestine, lesion: adenocarcinoma, dosed 40 weeks, study length 59 weeks) is 111 mg/kg/day; the TD50 (rat, strain Sprague-Dawley, females, in feed, site: small intestine, lesion: leiomyosarcoma, dosed 40 weeks, study length 59 weeks) was 111 mg/kg/day.
Take `S=c1nc[nH]c2nc[nH]c12`: the TD50 was 58.1 mg/kg/day (inactive) (rat, strain BR 46, males, i.v., site: any site (literature study), lesion: several types, types named in the paper, dosed 52 weeks, study length 104 weeks); 22.5 mg/kg/day (rat, strain F344/DuCrj, females, in feed, site: adrenal gland, lesion: pheochromocytoma, dosed 104 weeks, study length 113 weeks); 10.3 mg/kg/day (rat, strain F344/DuCrj, females, in feed, site: any site (literature study), lesion: malignant tumor, dosed 104 weeks, study length 113 weeks); 4.74 mg/kg/day (rat, strain F344/DuCrj, females, in feed, site: any site (literature study), lesion: several types, types named in the paper, dosed 104 weeks, study length 113 weeks); 34.1 mg/kg/day (rat, strain F344/DuCrj, females, in feed, site: central nervous system, lesion: several types, types named in the paper, dosed 104 weeks, study length 113 weeks); 139 mg/kg/day (rat, strain F344/DuCrj, females, in feed, site: liver, lesion: hepatocellular carcinoma, dosed 104 weeks, study length 113 weeks). Where the note is “rat, strain F344/DuCrj, females, in feed, site: uterus, lesion: adenocarcinoma, dosed 104 weeks, study length 113 weeks”, this molecule gave a TD50 of 34.1 mg/kg/day.

What is called TD50 is the 50% point of the dose-response relation for the toxic effect studied.

The values are drawn from PubChem BioAssay AID1745844 (Carcinogenic Potency Database (CPDB), 2022).
